In brackets after ≈: the same amount, converted by molar mass. Where two headings read alike, the source gives them in different places.
Columns and labels:
[1] = test system: Rice seeds (var.: Nankin No. 11) leaf section; assay: Assay of cytokinin activity by measurement of chlorophyll content (senescence retardation of rice leaf sections); assay type: cell-based, Rice (var.: Nankin No. 11); conditions: dark, 30°C, 3 days
Description: Rice seeds (var.: Nankin No. 11) were sown in soil mixed with fertilizer in a seed box and raised for about one month in a greenhouse (25°C in the daytime and 15°C in the night).
A leaf section 1 cm long was cut off from the center of the fourth leaf of the seedlings at the sixth leaf stage. Five leaf sections as one group which had been cut off were floated on the surface of an aqueous solution (2 ml) of the candidate compound or benzyl adenine at a given concentration contained in a glass tubular bottle of 32 mm in inner diameter. This was left to stand in the dark at 30°C for 3 days. The leaf sections were taken out and put in a test tube containing 10 ml of 80% ethanol and the glass tube was immersed in a water bath of 80°C for 20 minutes to extract chlorophyll. After cooling, 80% ethanol was added to make up to 10 ml and absorbance at 665 nm was measured. For the untreated group, water was used in place of the candidate solution in all examples.
Senescence retardation was determined according to the degree of chlorophyll retention, that is, calculated using the following formula (in all examples). [formula] • (A) : Absorbance of treated group after 3 days • (B) : Absorbance of untreated group after 3 days • (C) : Absorbance of leaves before treatment.

[2] = test system: glycine (soybean) hypocotyl section; assay: Assay for cytokinin activity according to glycine (soybean) hypocotyl section growth test (callus weight); assay type: cell-based, Soybean (var.: Enrei); conditions: Miller's medium with 2,4-D, dark, 30°C, about one month
Description: Soybean seeds (var.: Enrei) were disinfected with antiformin containing 0.7% effective chlorine for 4 minutes and washed thrice with sterilized water.
Agar (15 ml, 1.6%) was put in a test tube 2.5 cm in diameter. A groove was cut by forceps on the surface of the agar and two soybean seeds treated as above were placed in this groove and kept in the dark at 30°C for 5 days.
In a glass tubular bottle 26 mm in inner diameter was put Miller's medium, to which a given concentration of the candidate compound, benzyladenine or zeatin and […] of 2,4-D were added. The central portion of hypocotyl budding out from the above seeds was cut off to give a section 1 mm thick. Four of the sections as one group were transplanted to the Miller's medium. This was placed in the dark at 30°C for about one month and then the weight of callus formed was measured. For untreated group, the Miller's medium containing 9 mg/l of 2,4-D was used.

leaf of wheat = assay: Absorption from the surface of the leaf of wheat and translocation (length of green portion); assay type: cell-based, wheat [var.: Yukichabo (Triticum astivum)]; conditions: for The length of the green portion (mm) (average in 10 leaves): 10 µl in 0.2% Tween 80 on centre of wheat leaf section, 25°C, 5 days, dark
Description: In the same manner as in the above Example 8 test (1), wheat seedlings were grown to a height of 12 - 13 cm and a portion was cut off from tle region 4 cm from the tip of the first true leaf and this leaf section was used for this test.
The bottom of a Petri dish 9 cm in diameter was covered with a sheet of circular filter paper which was wetted with 2.5 ml of distilled water. A slide glass was put thereon and ten of the leaf sections were arranged on this slide glass with the upper surface of the leaf being uppermost. On the center of the leaf sections was put 10 µl of the solution prepared by dissolving the candidate compound or benzyladenine in a 0.2% aqueous solution of Tween 80 at a given concentration. The Petri dish was covered and left at 25°C for 5 days in the dark. In the part where the candidate solution was absorbed and translocated around the position on which the solution was put, the length of the portion where chlorophyll was retained, namely, the length of the green portion was measured. […]

Water solubility = assay type: physicochemical
Description: Water solubility of adenine derivatives of the present invention and representative known cytokinin substances was measured and the results are shown in Table 7. […]

wheat shoots = assay: Absorption from the base of wheat shoots and translocation (senescence retardation of leaf sections); assay type: cell-based, wheat [var.: Yukichabo (Triticum astivum)]; conditions: for The senescence retardation (%): 10 mg/l taken up from shoot base for 18 hours
Description: Wheat seedlings were grown to a height of 14-15 cm in the same manner as in the above Example 8 test (1) and the shoot was cut off at the base. These sections were used for the test.
A solution (10 ml) containing 10 mg/l of the candidate compound or benzyladenine was poured into a test tube 2.5 cm in diameter and five of the wheat shoots as one group were inserted in one test tube containing the candidate solution and left at 25°C for 18 hours under irradiation with light of 1500 Lx. Thereafter, each of the shoots was cut at 5-6 cm, 8-9 cm and 11-12 cm from the above cut end and five of the respective sections as one group were floated on the surface of distilled water (2 ml) in a glass tubular bottle 32 mm in inner diameter with the upper surface of the leaves being uppermost. These were left at 25°C for 3 days in the dark and thereafter, the leaf sections were put in a test tube containing 10 ml of 80% ethanol. This test tube was immersed in a water bath at 80°C for 20 minutes to extract chlorophyll. After cooling, 80% ethanol was added to make up to 10 ml and absorbance of the solution at 665 nm was measured. In the same manner as in the above Example 8 test (1), senescence retardation was obtained.

leaf section of wheat = assay: Activity on leaf section of wheat (senescence retardation, chlorophyll retention); assay type: cell-based, wheat [var.: Yukichabo (Triticum astivum)]; conditions: wheat leaf sections, 25°C, 4 days, dark
Description: Seeds of wheat [var.: Yukichabo (Triticum astivum)] were sown in vermiculite packed in a seed-bed box and were sprouted by keeping them at 28°C for 2 days in the dark. The seedlings wera grown at 25°C for 5 days under irradiation with light of 1500 Lx. When they grew to a length of 12 - 13 cm, a portion having a length of 1 cm was cut off from the leaf in the region 2 - 5 cm from the tip of the first true leaf. Five of the leaf sections as one group were floated with the upper surface of the leaf being uppermost on the surface of aqueous solution (2 ml) of a given concentration of the candidate compound or benzyladenine contained in a glass tubular bottle 32 mm in inner diameter. These were placed at 25°C for 4 days in the dark and thereafter, these leaf sections were put in a test tube containing 10 ml of 80% ethanol and this test tube was immersed in a water bath at 80°C for 20 minutes to extract chlorophyll. After cooling, 80% ethanol was added to make up to 10 ml and absorbance at 665 nm was measured. Senescence retardation was determined according to the degree of retention of chlorophyll. For the untreated group, water was used in place of the aqueous solution of candidate compound.

[3] = region of leaf section 5-6 (cm) from cut end
[4] = region of leaf section 8-9 (cm) from cut end
[5] = region of leaf section 11-12 cm from cut end

Structure (SMILES) | The senescence retardation (%) ([1]; 0.001 mg/l) | The senescence retardation (%) ([1]; 0.01 mg/l) | The senescence retardation (%) ([1]; 0.1 mg/l) | The senescence retardation (%) ([1]; 1.0 mg/l) | The weight of soybean callus formed ([2]; 0.001 mg/l) [mg] | The weight of soybean callus formed ([2]; 0.01 mg/l) [mg] | The weight of soybean callus formed ([2]; 0.1 mg/l) [mg] | The length of the green portion (mm) (average in 10 leaves) (leaf of wheat; 0.1 mg/l) | The length of the green portion (mm) (average in 10 leaves) (leaf of wheat; 1.0 mg/l) | The length of the green portion (mm) (average in 10 leaves) (leaf of wheat; 10 mg/l) | The senescence retardation (%) (wheat shoots; [3]) | The senescence retardation (%) (wheat shoots; [4]) | The senescence retardation (%) (wheat shoots; [5]) | The senescence retardation (%) (leaf section of wheat; 0.0001 mg/l) | The senescence retardation (%) (leaf section of wheat; 0.001 mg/l) | The senescence retardation (%) (leaf section of wheat; 0.01 mg/l) | The senescence retardation (%) (leaf section of wheat; 0.1 mg/l) | The senescence retardation (%) (leaf section of wheat; 1.0 mg/l) | The senescence retardation (%) (leaf section of wheat; 10 mg/l) | other results
CON(C)CCNc1ncnc2nc[nH]c12 [MAED, N⁶-[2-(N-methoxy-N-methylamino)ethyl]adenine] | 14 | 60 | 100 | 95 | 97 | 182 | 654 | 9.9 | 19.8 | 28.8 | 37 | 34 | 20 | 4 | 14 | 43 | 56 | 58 | 76 | The weight of soybean callus formed ([2]; 1.0 mg/l): 823 mg; The weight of soybean callus formed ([2]; 10 mg/l): 705 mg; green portion compared with benzyladenine (absorbability and translocation) (leaf of wheat; at the same concentration, result in words): expanded the green portion in more widely than benzyladenine; solubility (Water solubility; 20°C, read-out: Solubility (g/100 g H₂O) (20°C)): 99 mg/mL (≈ 445 mM); senescence retardation compared with benzyladenine (absorbability and translocation) (wheat shoots; all regions of the first true leaf of wheat, result in words): more pronounced effect of senescence retardation than benzyladenine in all regions
c1ccc(CNc2ncnc3nc[nH]c23)cc1 [Benzyladenine, 6-benzylaminopurine, reference compound] | 17 | 64 | 93 | 93 | 76 | 836 | 674 | 9.6 | 14.2 | 16.9 | 17 | 21 | 14 | 7 | 15 | 50 | 55 | 74 | 75 | solubility (Water solubility): 0.03 mg/mL (≈ 0.133 mM)

Reference: patent publication EP0390515A1, “Novel adenine derivatives and their use as agents for increasing crop yields” (MITSUBISHI GAS CHEMICAL COMPANY, INC., priority 1989, dated 1990)
